In one test the target is T1, dopamine D-2 receptor (Rattus norvegicus, UniProt P61169).
T1 construct: from tissue; host or cells: homogenized limbic brain tissue
Description: dopamine D-2 receptor binding, displacement of 3H-spiroperidol, homogenized limbic brain tissue. The procedure: High affinity for the dopamine D-2 receptor was established by the standard experimental test procedure of Fields et al., Brain Res., 136 578 (1977) and Yamamura et al., eds., Neurotransmitter Receptor Binding, Raven Press, N.Y. (1978) wherein homogenized limbic brain tissue is incubated with ^3 H-spiroperidol and various concentrations of test compound, filtered and washed and shaken with Hydrofluor scintillation cocktail (National Diagnostics) and counted in a Packard 460 CD scintillation counter.

The target in test [1] is T2, serotonin 5-HT1A receptor (Rattus norvegicus, UniProt P19327).
T2 sequence (P19327 1-422): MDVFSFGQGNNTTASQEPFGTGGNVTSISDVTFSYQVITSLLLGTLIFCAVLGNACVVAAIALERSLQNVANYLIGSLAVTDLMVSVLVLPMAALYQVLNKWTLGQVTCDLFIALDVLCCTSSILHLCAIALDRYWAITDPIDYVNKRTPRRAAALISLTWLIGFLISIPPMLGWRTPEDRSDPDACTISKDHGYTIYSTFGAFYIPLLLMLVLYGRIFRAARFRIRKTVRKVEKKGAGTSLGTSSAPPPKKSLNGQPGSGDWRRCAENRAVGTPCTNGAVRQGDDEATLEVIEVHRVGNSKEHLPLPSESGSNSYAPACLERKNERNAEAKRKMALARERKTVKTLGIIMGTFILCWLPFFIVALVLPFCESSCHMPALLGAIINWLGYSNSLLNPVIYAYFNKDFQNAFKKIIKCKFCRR
Description: serotonin 5-HT1A receptor binding, displacement of [3H] 8-OHDPAT. More on the design: following the procedure of Hall et al., J. Neurochem; 44 1685 (1985); from tissue. As to conditions: for inhibition at 0.1 µM: as marked beside the value. The text has this: High affinity for the serotonin 5-HT1A receptor was established by testing the claimed compounds ability to displace [^3 H] 8-OHDPAT (dipropylaminotetralin) from the 5HT1A serotonin receptor following the procedure of Hall et al., J. Neurochem. 44 1685 (1985). […] The anxiolytic activity of buspirone is believed to be, at least partially, due to its 5-HT1A receptor affinity (Vander Maclen et al., Eur. J. Pharmacol. 1986, 129 (1-2) […].

The test system of another test is 5-HT1A receptor. The note with it: cited from earlier work.
In test [2] the target is T2, serotonin 5-HT1A receptor. As to conditions: in words; standard for anxiolytic activity; cited from earlier work.

The values that follow come from patent US4910302A, “Psychotropic polycyclic imides” (American Home Products Corporation, priority 1988, dated 1990).

T1 sequence (P61169 whole entry): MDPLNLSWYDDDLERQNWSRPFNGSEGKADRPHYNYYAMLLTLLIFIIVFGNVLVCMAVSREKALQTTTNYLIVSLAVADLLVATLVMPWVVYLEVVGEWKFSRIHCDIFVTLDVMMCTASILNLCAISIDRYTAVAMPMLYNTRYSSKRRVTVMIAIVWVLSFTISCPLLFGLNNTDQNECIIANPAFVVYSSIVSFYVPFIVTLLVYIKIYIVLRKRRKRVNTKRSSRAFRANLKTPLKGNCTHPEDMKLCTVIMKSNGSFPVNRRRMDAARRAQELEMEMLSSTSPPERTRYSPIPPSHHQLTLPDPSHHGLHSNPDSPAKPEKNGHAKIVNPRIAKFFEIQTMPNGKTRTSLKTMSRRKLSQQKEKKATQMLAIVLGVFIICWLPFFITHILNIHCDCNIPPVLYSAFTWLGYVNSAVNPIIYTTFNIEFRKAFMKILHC

As for `O=C1C2C(C(=O)N1CCCCNCC1COc3ccccc3O1)C1C3CC4C(C32)C41` (stereo not drawn) [Example 2, Endo-2-[4-[(2,3-dihydro-1,4-benzodioxan-2-ylmethyl)amino]butyl]octahydro-4,5,7-metheno-1H-pentaleno[1,2-c]pyrrole-1,3(2H)-dione], the inhibition at 1 µM on dopamine D-2 receptor came to 100%; in test [1] (at 1 μM) it was 96%.

With `O=C1CC2(CCCC2)CC(=O)N1CCCCNCC1COc2ccccc2O1` (single isomer, unassigned) [-(MDL) 72832], the “binding at the 5-HT1A receptor site relative to the dextro rotatory isomer” value in the test on 5-HT1A receptor (ratio to dextro rotatory isomer) is recorded as 32 times. The compound `CC1(C)[C@@H]2CC[C@@]1(C)C(=O)N(CCNCC1COc3ccccc3O1)C2=O` (stereo partly shown) [Example 6] gave an inhibition at 1 µM at dopamine D-2 receptor of 61%. The inhibition at 0.1 µM in test [1] was found to be 52%. In turn, `O=C1C2C3C=CC(C4C=CC43)C2C(=O)N1CCNCC1COc2ccccc2O1` (stereo not shown) [Example 7, 2-[2-[(2,3-Dihydro-1,4-benzodioxan-2-ylmethyl)amino]ethyl]hexahydro-4,7-etheno-1H-cyclobut[f]isoindole-1,3-(2H)-dione] came in with an inhibition at 1 µM at dopamine D-2 receptor of 54%. Besides, the inhibition at 0.1 µM in test [1] turned out to be 92%. The like results for `O=C1C2CC(C(=O)N1CCNCC1COc3ccccc3O1)C1C2C2C3CC4C2C4C31` (stereo not shown) [Example 8, Decahydro-3-[2-[(2,3-dihydro-1,4-benzodioxan-2-ylmethyl)amino]ethyl]-1,5-methano-6,7,9-metheno-2H-pentaleno[1,2d]azepine-2,4(3H)-dione] were, in that order, 89% and 100%. For `O=C1C2C3C=CC(C4CC34)C2C(=O)N1CCCCNCC1COc2ccccc2O1` (stereo not shown) [Example 5], the inhibition at 1 µM (on dopamine D-2 receptor; in test [1] (at 1 μM)) was 100% each time. Turning to `O=C1C2C(C(=O)N1CCCCNCC1COc3ccccc3O1)C1C3CC4C(C32)C41` (stereo not drawn) [Example 3, Exo-2-[4-[(2,3-dihydro-1,4-benzodioxan-2-ylmethyl)amino]butyl]octahydro-4,5,7-metheno-1H-pentaleno[1,2c]pyrrole-1,3(2H)-dione], the “D-2 Binding (% Inhibition at 1 μM)” value on dopamine D-2 receptor (at 1 μM) worked out at 100%. Besides, the “5-HT1A Binding (% Inhibition at 1 μM)” value in test [1] (at 1 μM) is 94%.

`O=C1C2C3C=CC(C4C=CC43)C2C(=O)N1CCCCNCC1COc2ccccc2O1` (stereo not shown) [Example 4, 2-[4-[(2,3-Dihydro-1,4-benzodioxan-2-ylmethyl)amino]butyl]hexahydro-4,7-etheno-1H-cyclobut[f]isoindole-1,3-(2H)-dione]: the inhibition at 1 µM (on dopamine D-2 receptor; in test [1] (at 1 μM)) was 100% each time. `O=C1CC2(CCCC2)CC(=O)N1CCCCNCC1COc2ccccc2O1` (stereo not shown) [MDL 72832, 8-[4-(1,4-benzodioxan-2-ylmethylamino)butyl]-8-azaspiro[4.5]decane-7,9-dione]: the “5-HT1A receptor ligand character” value with 5-HT1A receptor (in words) was “selective and stereospecific”.

Consider `O=C1C2CC(C(=O)N1CCCCNCC1COc3ccccc3O1)C1C2C2C3CC4C2C4C31` (stereo not shown) [Example 1, Decahydro-3-[4-[(2,3-dihydro-1,4-benzodioxan-2-ylmethyl)amino]butyl]-1,5-methano-6,7,9-metheno-2H-pentaleno[1,2-d]azepine-2,4(3H)-dione], for which the inhibition at 1 µM on dopamine D-2 receptor worked out at 100%; in test [1] (at 1 μM), 96%. On to `O=C1CC2(CCCC2)CC(=O)N1CCCCN1CCN(c2ncccn2)CC1` [buspirone], for which, in test [2], the “affinity for the 5-HT1A serotonin receptor subtype” value is listed as “potent affinity”.
